Reference: patent publication US12312627B2, “Microorganisms and methods for production of 4-hydroxybutyrate, 1,4-butanediol and related compounds” (priority 2013, dated 2025)

T1: endogenous alcohol dehydrogenase backflux activity (Escherichia coli, UniProt P27250)
T1 sequence (P27250 1-339): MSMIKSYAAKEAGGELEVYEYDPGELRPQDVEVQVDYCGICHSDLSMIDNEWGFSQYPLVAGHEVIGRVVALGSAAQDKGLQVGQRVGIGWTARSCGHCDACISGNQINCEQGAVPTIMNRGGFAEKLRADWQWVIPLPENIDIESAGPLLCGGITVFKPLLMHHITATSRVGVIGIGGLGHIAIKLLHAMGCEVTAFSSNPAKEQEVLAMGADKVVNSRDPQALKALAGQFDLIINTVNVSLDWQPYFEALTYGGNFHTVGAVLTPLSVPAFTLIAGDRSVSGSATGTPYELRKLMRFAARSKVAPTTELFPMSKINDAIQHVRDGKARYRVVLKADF


Columns and labels:
[1] = tested on: aminotransferase from Leishmania mexicana; conditions: enzyme expressed in E. coli; cited from earlier work
cytochrome bo oxidase = cytochrome bo oxidase (Escherichia coli, UniProt P0ABI8); conditions: read-out: Km for O2; cited from earlier work
cytochrome bd oxidase = conditions: cited from earlier work
[2] = molecular target: T1, endogenous alcohol dehydrogenase backflux activity; conditions: purified streptavidin-tagged protein, in the presence of NADP+
Text: The sample was purified while following the backflux activity.
The yjgB gene was cloned with a streptavidin tag, expressed and purified in order to characterize its properties.

cytochrome bo oxidase, sequence (P0ABI8 whole entry): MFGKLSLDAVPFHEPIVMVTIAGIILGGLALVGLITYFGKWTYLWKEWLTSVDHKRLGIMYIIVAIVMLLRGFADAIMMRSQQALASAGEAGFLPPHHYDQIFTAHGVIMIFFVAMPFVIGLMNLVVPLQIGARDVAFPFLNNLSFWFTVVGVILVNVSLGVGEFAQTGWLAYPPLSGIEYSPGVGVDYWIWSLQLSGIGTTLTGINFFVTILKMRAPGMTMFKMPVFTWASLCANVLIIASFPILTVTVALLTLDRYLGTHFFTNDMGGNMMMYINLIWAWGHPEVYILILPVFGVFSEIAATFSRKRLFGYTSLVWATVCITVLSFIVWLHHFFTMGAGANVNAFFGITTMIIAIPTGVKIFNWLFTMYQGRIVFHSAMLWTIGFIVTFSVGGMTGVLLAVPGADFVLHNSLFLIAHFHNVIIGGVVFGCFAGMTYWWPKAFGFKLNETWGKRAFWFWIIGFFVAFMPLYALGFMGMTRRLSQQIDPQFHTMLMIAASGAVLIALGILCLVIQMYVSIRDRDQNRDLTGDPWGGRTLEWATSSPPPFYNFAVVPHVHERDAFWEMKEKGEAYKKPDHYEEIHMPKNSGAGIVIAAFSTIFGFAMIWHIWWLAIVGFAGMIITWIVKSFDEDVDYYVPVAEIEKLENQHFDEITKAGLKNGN
cytochrome bo oxidase, sequence (P0ABJ1 25-315 partner): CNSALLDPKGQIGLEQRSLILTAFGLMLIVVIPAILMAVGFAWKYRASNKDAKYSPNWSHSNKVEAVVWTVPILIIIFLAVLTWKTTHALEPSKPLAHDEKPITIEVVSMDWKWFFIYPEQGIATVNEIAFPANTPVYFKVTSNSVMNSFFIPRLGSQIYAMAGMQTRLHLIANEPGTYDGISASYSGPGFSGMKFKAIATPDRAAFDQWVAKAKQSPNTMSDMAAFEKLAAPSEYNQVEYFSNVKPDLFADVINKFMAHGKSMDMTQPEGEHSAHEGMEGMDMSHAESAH
cytochrome bo oxidase, sequence (P0ABJ3 whole entry partner): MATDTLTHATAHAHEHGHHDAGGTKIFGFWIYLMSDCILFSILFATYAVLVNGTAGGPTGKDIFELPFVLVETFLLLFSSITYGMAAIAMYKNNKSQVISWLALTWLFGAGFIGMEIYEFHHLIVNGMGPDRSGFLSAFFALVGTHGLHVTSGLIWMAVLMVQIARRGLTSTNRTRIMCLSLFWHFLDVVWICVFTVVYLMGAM
cytochrome bo oxidase, sequence (P0ABJ6 whole entry partner): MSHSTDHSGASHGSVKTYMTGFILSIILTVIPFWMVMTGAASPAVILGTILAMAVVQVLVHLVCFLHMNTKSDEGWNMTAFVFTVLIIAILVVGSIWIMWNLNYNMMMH

| Molecule | activity (considered 100% on tyrosine) [1] [%] | also measured |
| --- | --- | --- |
| N[C@@H](Cc1ccc(O)cc1)C(=O)O [tyrosine] | 100 |  |
| N[C@@H](Cc1c[nH]c2ccccc12)C(=O)O [tryptophan] | 85 |  |
| CC(C)C[C@H](N)C(=O)O [leucine] | 25 |  |
| O=O [Sample O2] |  | Km (cytochrome bo oxidase): ~1 µM; Km (cytochrome bd oxidase; read-out: Km for O2): 0.01 µM |
| CSCC[C@H](N)C(=O)O [methionine] | 25 |  |
| N[C@@H](Cc1ccccc1)C(=O)O [phenylalanine] | 90 |  |
| Cytochrome bd-II |  | In vivo sp act (mol O2/mol cytochrome bd/s) (cytochrome bd oxidase; from Bekker et al. 2009): 70 ± 12 mol O2/mol cytochrome bd/s; Vmax (mol O/mol cytochrome bd/s) (cytochrome bd oxidase; from Bekker et al. 2009): 818 ± 75 mol O/mol cytochrome bd/s |
| yjgB: E. coli alcohol dehydrogenase yjgB (GenBank NP_418690.4) identified as carrying backflux activity (protein, UniProt P27250 1-339, looked up) Aldehyde reductase Ahr: MSMIKSYAAKEAGGELEVYEYDPGELRPQDVEVQVDYCGICHSDLSMIDNEWGFSQYPLVAGHEVIGRVVALGSAAQDKGLQVGQRVGIGWTARSCGHCDACISGNQINCEQGAVPTIMNRGGFAEKLRADWQWVIPLPENIDIESAGPLLCGGITVFKPLLMHHITATSRVGVIGIGGLGHIAIKLLHAMGCEVTAFSSNPAKEQEVLAMGADKVVNSRDPQALKALAGQFDLIINTVNVSLDWQPYFEALTYGGNFHTVGAVLTPLSVPAFTLIAGDRSVSGSATGTPYELRKLMRFAARSKVAPTTELFPMSKINDAIQHVRDGKARYRVVLKADF |  | activity with BDO as a substrate [2]: robust activity |
